In patent publication US20240358727A1, “MICROSCALE THERMOPHORESIS TO EVALUATE CHANNEL LIPID INTERACTIONS AND METHODS OF TREATING NAV CHANNELS RELATED DISEASES” (Northeastern University, priority 2023, published 2024):

Biological target: T1, Nav1.4 (Rattus norvegicus, UniProt P15390)
T1 construct: expressed in transfected cells; host or cells: HEK293T (ATCC CRL-3216)
Experiment: Whole-cell patch clamp of rNav1.4 + Navβ1 in HEK293T cells with optogenetic PI-phosphatases and diC8PI(4,5)P2 in the pipette
Format: cell-based
Conditions: for ILATE: % of IPEAK
Description: Purified diC8PI(4,5)P2 was purchased from Echelon Biosciences. For oocyte studies, plasmid vectors were linearized after the Xenopus β-globulin domain of each construct, verified by gel electrophoresis, and transcribed in vitro using the mMESSAGE mMACHINE T7 Transcription Kit (Thermo Fisher Scientific) to generate cRNA according to the manufacturer's protocol. Rat Nav1.4 (SCN4 Å; NM_013178.2) was handled in pBud, a CMV driven vector. To study Nav1.4 currents, the plasmid was used in concert with Navβ1 (SCN1B, isoform b; NM_001037) in pRAT, a CMV driven vector. The inactivation deficient mutant, Nav1.4-WCW was handled in pCap. CRY2-Sac2 was subcloned into pMAX(+) for expression in mammalian cells, or the generation of cRNA for use in Xenopus oocytes. The open reading frame of pseudojanin was designed with an N-terminal CRY2-tag in the pMAX(+) vector and was generated by Genscript (Piscataway, NY).
Human embryonic kidney (HEK293T) cells were acquired from American Type Culture Collection (ATCC, Cat #CRL-3216) and were maintained in Dulbecco's modified Eagle's medium (ATCC) supplemented with 100 units/ml penicillin, 100 μg/ml streptomycin, and 10% (vol/vol) fetal bovine serum. Cells were routinely confirmed to be mycoplasma free via PCR and Hoescht stain. The cells were incubated in a 37° C., humified incubator supplemented with 5% CO2. For our experiments, cells were seeded on glass coverslips in 35 mm culture dishes at least one day before transfection. Cells were transiently transfected with rNav1.4, Navβ1, CIBN-CAAX and CRY2-5-PtaseOCRL or CRY2-pseudojanin, along with the near-infrared PI(4,5)P2 biosensor iRFP-PHPLCδ1 as indicated, in OptiMEM using polyethyleneimine (PEI) for 1-2 hours at a ratio of 1 μg of DNA to 4 μL PEI. The near red fluorescent protein, mCherry, was typically used as a transfection marker. The cells were studied 24-48 hours after transfection.
Whole-cell patch clamp. HEK293T cells were studied by whole cell patch-clamp. Currents were recorded with a Tecella Pico-2 amplifier (Tecella) controlled using WinWCP software (University of Strathclyde). Currents were low pass (Bessel) filtered at 9 kHz and digitized at 50 kHz. […] The cells were perfused using a multichannel gravity-driven perfusion manifold (Warner) with an extracellular solution containing (in mM): 130 NaCl, 5 CsCl, 1.2 MgCl2·6H2O, 1.5 CaCl2), 8 Glucose, 10 HEPES. Data was collected from cells with a series resistance less than 15 MQ. The junction potential was less than 3 mV and was not compensated.
Current-voltage (I-V) relationships were evoked from a holding potential of −90 mV by 400 ms test pulses between −80 and 50 mV, in 5 mV increments. Steady-state inactivation was studied by holding the cells at −140 mV and then comparing currents evoked by 50 ms test pulses between −140 mV and 30 mV to those evoked by a 100 ms prepulse to […]. A 10 s interpulse interval was used in both cases. Normalized peak current values are plotted against the prepulse potential (mV). To quantify voltage-dependence, the data were normalized, plotted against the driving force to generate normalized conductance-voltage relationships (G-V) that were fit using a Boltzmann function, I=IMAX/(1+exp[V−V ½/K]), where IMAX is the maximum current and K is the slope factor. Recovery from fast inactivation was studied by holding cells at −100 mV and comparing currents evoked by a pair of 50 ms test step to −30 mV separated by an interpulse interval that increased in duration by 5 ms increments per sweep. The time constant for recovery from inactivation (τinact) was obtained from mono-exponential fits of the normalized current amplitude to the recovery time using It=Imax+A[e^−t/τ], where ‘A’ is the amplitude of components and ‘t’ is time. Whole-cell currents were normalized to cell capacitance. Mean±SEM capacitance values were 12±4 pF for HEK293T cells. […]

[1] = 200 μM diC8-PIP2 in patch pipette
[2] = 200 μM diC8PI(4,5)P2, CRY2-PJ cells
[3] = 200 μM diC8PI(4,5)P2 vs CRY2-PJ BL
[4] = CRY2-5POCRL, BL + 200 μM diC8PI(4,5)P2
[5] = CRY2-5POCRL, Control + 200 μM diC8PI(4,5)P2
[6] = CRY2-PJ, BL + 200 μM diC8PI(4,5)P2
[7] = CRY2-PJ, Control + 200 μM diC8PI(4,5)P2

T1 sequence (P15390 whole entry): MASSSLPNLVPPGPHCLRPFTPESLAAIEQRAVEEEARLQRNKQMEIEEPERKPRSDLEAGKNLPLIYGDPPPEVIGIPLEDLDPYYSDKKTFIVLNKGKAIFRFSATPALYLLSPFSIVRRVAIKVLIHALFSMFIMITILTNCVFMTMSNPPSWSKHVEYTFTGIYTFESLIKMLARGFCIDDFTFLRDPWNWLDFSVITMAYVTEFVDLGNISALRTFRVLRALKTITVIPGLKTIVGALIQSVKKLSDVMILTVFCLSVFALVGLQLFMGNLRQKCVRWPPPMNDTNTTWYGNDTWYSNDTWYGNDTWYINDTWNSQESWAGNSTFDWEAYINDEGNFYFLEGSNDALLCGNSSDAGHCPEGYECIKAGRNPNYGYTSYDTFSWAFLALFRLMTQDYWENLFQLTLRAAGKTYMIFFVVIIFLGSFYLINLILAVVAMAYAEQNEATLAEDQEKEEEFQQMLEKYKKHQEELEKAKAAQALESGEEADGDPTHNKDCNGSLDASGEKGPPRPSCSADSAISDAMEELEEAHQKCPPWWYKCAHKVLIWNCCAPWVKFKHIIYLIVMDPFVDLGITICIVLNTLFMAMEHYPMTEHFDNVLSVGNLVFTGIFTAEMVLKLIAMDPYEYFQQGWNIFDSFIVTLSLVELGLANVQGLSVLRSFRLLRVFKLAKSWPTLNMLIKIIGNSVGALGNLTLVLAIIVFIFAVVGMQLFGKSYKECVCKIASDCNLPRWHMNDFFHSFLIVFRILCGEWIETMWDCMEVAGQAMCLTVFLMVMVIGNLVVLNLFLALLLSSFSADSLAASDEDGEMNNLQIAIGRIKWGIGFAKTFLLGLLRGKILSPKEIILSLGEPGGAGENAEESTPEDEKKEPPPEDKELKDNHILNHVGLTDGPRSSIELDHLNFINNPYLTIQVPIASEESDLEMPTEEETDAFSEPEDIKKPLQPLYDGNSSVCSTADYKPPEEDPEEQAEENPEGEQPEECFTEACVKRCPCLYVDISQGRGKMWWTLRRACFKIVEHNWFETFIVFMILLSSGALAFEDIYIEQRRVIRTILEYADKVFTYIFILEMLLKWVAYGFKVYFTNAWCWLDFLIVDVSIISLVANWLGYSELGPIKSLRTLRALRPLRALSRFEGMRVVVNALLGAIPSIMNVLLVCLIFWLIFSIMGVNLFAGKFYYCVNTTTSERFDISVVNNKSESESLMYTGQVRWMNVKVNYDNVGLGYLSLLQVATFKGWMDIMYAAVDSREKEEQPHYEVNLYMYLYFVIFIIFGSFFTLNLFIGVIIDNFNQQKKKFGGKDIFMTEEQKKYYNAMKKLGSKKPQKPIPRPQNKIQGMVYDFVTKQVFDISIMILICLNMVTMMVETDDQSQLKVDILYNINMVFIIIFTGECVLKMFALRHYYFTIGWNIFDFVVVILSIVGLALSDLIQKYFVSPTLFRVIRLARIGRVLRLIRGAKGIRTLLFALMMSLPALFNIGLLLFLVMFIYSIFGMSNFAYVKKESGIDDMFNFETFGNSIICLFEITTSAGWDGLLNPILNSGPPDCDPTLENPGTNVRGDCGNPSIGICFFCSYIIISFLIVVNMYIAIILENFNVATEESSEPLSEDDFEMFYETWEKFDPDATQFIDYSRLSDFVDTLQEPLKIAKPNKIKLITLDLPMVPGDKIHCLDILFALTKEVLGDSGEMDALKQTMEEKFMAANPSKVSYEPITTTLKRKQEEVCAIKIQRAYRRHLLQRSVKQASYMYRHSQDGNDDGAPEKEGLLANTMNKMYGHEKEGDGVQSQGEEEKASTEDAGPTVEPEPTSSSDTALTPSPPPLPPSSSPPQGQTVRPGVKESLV
T1 sequence (Q07699 19-218 partner): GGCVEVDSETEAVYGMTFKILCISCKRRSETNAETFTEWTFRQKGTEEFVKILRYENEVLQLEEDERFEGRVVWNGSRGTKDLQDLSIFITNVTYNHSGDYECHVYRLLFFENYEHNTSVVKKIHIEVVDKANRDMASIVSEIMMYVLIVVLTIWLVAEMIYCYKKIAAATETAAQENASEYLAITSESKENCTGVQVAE

Compound: CCCCCCCC(=O)OC[C@H](COP(=O)(O)O[C@@H]1[C@H](O)[C@H](O)[C@@H](OP(=O)(O)O)[C@H](OP(=O)(O)O)[C@H]1O)OC(=O)CCCCCCC [diC8-PIP2]
- effect on V½ACT of Nav1.4 [1]: rightward shift
- effect on V½SSI of Nav1.4 [1]: no effect
- effect on CRY2-5POCRL effects on voltage-dependent gating (200 μM diC8PI(4,5)P2): precluded
- effect on CRY2-PJ photoactivation effects on V½act (200 μM diC8PI(4,5)P2): ameliorated
- right shift in V½act (200 μM diC8PI(4,5)P2, CRY2-5POCRL cells): ~5 mV
- effect on increase in the magnitude of the window current (200 μM diC8PI(4,5)P2, CRY2-PJ): abolished
- right-shift in V½SSI compared to untreated cells [2]: ~3 mV
- right-shift in V½act compared to untreated cells [2]: −5.5 mV
- overall excursion in mean V½ACT between diC8PI(4,5)P2 treated cells and control cells after photoactivation (200 μM diC8PI(4,5)P2 vs CRY2-5POCRL BL): −12.5±3 mV
- change in mean V½act between diC8PI(4,5)P2 treated cells and control cells after dephosphorylation [3]: −16±2 mV
- shift in mean V½SSI between diC8PI(4,5)P2 treated cells and control cells after dephosphorylation [3]: −5.4±2 mV
- KAct [4]: 5.2 ± 0.3 mV
- KSSI [4]: −5.1 ± 1^ mV
- V½SSI [4]: −57 ± 1 mV
- V½act [4]: −32 ± 1 mV
- tau (fast inactivation) [4]: 7.4 ± 0.6 ms
- IPEAK (CRY2-5POCRL, BL + 200 μM diC8PI(4,5)P2, −20 mV): −268 ± 25 pA/pF
- IPEAK (CRY2-5POCRL, BL + 200 μM diC8PI(4,5)P2, −40 mV): −202 ± 21 pA/pF
- IPEAK (CRY2-5POCRL, BL + 200 μM diC8PI(4,5)P2, −60 mV): −19 ± 4 pA/pF
- ILATE [4]: 0.27 ± 0.02%
- KAct [5]: 5.0 ± 0.2 mV
- KSSI [5]: −5.0 ± 2^ mV
- V½SSI [5]: −58 ± 2 mV
- V½act [5]: −32 ± 1 mV
- tau (fast inactivation) [5]: 6.0 ± 0.3 ms
- IPEAK (CRY2-5POCRL, Control + 200 μM diC8PI(4,5)P2, −20 mV): −274 ± 32 pA/pF
- IPEAK (CRY2-5POCRL, Control + 200 μM diC8PI(4,5)P2, −40 mV): −186 ± 28 pA/pF
- IPEAK (CRY2-5POCRL, Control + 200 μM diC8PI(4,5)P2, −60 mV): −23 ± 6 pA/pF
- ILATE [5]: 0.26 ± 0.02%
- KAct [6]: 5.0 ± 1.0 mV
- KSSI [6]: −5.1 ± 0.5 mV
- V½SSI [6]: −54 ± 2 mV
- V½act [6]: −33 ± 4 mV
- tau (fast inactivation) [6]: 5.1 ± 0.3 ms
- IPEAK (CRY2-PJ, BL + 200 μM diC8PI(4,5)P2, −20 mV): −272 ± 24 pA/pF
- IPEAK (CRY2-PJ, BL + 200 μM diC8PI(4,5)P2, −40 mV): −209 ± 22 pA/pF
- IPEAK (CRY2-PJ, BL + 200 μM diC8PI(4,5)P2, −60 mV): −23 ± 3 pA/pF
- ILATE [6]: 0.38 ± 0.03%
- KAct [7]: 4.0 ± 0.7 mV
- KSSI [7]: −4.2 ± 1.0 mV
- V½SSI [7]: −55 ± 4 mV
- V½act [7]: −33 ± 3 mV
- tau (fast inactivation) [7]: 4.7 ± 0.2 ms
- IPEAK (CRY2-PJ, Control + 200 μM diC8PI(4,5)P2, −20 mV): −264 ± 18 pA/pF
- IPEAK (CRY2-PJ, Control + 200 μM diC8PI(4,5)P2, −40 mV): −194 ± 24 pA/pF
- IPEAK (CRY2-PJ, Control + 200 μM diC8PI(4,5)P2, −60 mV): −19 ± 2 pA/pF
- ILATE (CRY2-PJ, Control + 200 μM diC8PI(4,5)P2, pulse to −20 mV): 0.37 ± 0.1%
